Data from patent publication US7638503B2, “Small molecule stimulators of neuronal growth” (California Institute of Technology, priority 2004, dated 2009).

Assays:
[1] = test system: dorsal root ganglion (DRG) neurons; test: Outgrowth of cultured dorsal root ganglion (DRG) neurons from the spinal cord; format: cell-based
Description: (§1) Effect of disaccharide CS-E, tetrasaccharides CS-E, and unsulfated tetrasaccharide on the growth of dopaminergic neurons as well as dorsal root ganglion (DRG) neurons from the spinal cord is illustrated in FIGS. 2A-B and 4A-B, respectively. In certain embodiments, the CS-E tetrasaccharide promoted the outgrowth of cultured dopaminergic and DRG neurons by 30-40% relative to the untreated controls. FIGS. 5 and 7 illustrate binding of tetrasaccharides CS-E, CS-C and disaccharide CS-E to tumor necrosis factor-α and midkine, respectively.

[2] = test system: primary hippocampal neurons; test: Hippocampal neuronal growth: neurite outgrowth of cultured primary hippocampal neurons, anti-tau immunostaining, confocal microscopy; format: cell-based, Sprague-Dawley rats; settings: 48 h
Description: In certain embodiments, the activity of the compounds provided herein to modulate neuronal growth, can be tested using cultured primary hippocampal neurons. Primary hippocampal neurons are cultured on poly-DL-ornithine-coated coverslips with or without each compound. After 48 h, the neurons are fixed, immunostained with anti-tau antibodies, and examined by confocal fluorescence microscopy. The effect of sulfated tetrasaccharide CS-E on neuronal morphology and growth is illustrated in FIGS. 1A-B. The number of neurites emanating from the cell body was enhanced, and the growth of the major extension was stimulated by 39.3±3.6% relative to the poly-DL-omithine control.
Hippocampal Neuronal Cultures. Hippocampal neuronal cultures were prepared using a modified version of the Goslin and Banker protocol (Goslin, K.; Banker, G. In Culturing Nerve Cells; Banker, G.; Goslin, K.; Eds.; MIT Press: Cambridge, Mass., 1991; pp 251-281). Embryos at the E18 stage were obtained from timed-pregnant Sprague-Dawley rats, and the hippocampus from each embryo was dissected. All the hippocampi from one preparation were transferred to a 15 mL conical tube containing 4.5 mL of ice-cold Calcium and Magnesium Free-Hank's Balanced Salt Solution (CMF-HBSS) (GIBCO). Trypsin (2.5%, no EDTA; GIBCO) was added to 5 mL, and the tissue was digested for 15 min at 37° C. The trypsin solution was removed and the tissue rinsed with 5 mL of CMF-HBSS three times. The tissue was then dissociated in 1 mL of CMF-HBSS by passing through a P1000 pipet tip twenty times. The cells were counted with a hemacytometer and plated on glass coverslips at 80 cells/mm2 and cultivated in minimal Eagle's Medium (MEM) (GIBCO) supplemented with the N2 mixture (GIBCO) and 0.1 mM pyruvate. The cultures were maintained in 5% CO2 at 37° C. Glass coverslips were coated as described by Clement et. al. (Clement, A.M.; Nadanaka, S.; Masayama, K.; Mandl, C.; Sugahara, K.; Faissner, A. J. Biol. Chem. 1998, 273, 28444-28453) Briefly, coverslips were precoated with 0.015 mg/mL poly-DL-ornithine (SIGMA) for 1 h at 37° C./5% CO2, washed three times with double distilled H2O, and coated with 0.5 mg/mL of compounds 1-3 in PBS overnight at 37° C./5% CO2. The coverslips were then washed three times with PBS and flooded with MEM+N2 media.
Immunocytochemistry of Hippocampal Neuronal Cultures. After 48 h in culture, hippocampal neurons on coverslips were used for immunostaining. […]
Morphometric Analysis. For quantitative analysis, 50 cells were analyzed per coverslip. Only cells with neurites longer than one cell body diameter were counted. The length of the longest neurite from stained cells was measured using N1H Image 1.52 software. […]

[3] = test system: dopaminergic neurons; test: Outgrowth of cultured dopaminergic neurons; format: cell-based
Description: as §1

[4] = primary hippocampal neurons on poly-DL-ornithine-coated coverslips with compound

Row | Compound | outgrowth promoted relative to the untreated controls [1] | growth of the major extension stimulated relative to the poly-DL-ornithine control ([2]; primary hippocampal neurons on poly-DL-ornithine-coated coverslips with compound (0.5 mg/mL coating)) [%] | number of neurites emanating from the cell body [2, 4] | outgrowth promoted relative to the untreated controls [3] | effect on neuronal outgrowth [2, 4]
1 | C=CCO[C@@H]1O[C@H](COS(=O)(=O)[O-])[C@H](OS(=O)(=O)[O-])[C@H](O[C@@H]2O[C@H](C(=O)[O-])[C@@H](O[C@@H]3O[C@H](COS(=O)(=O)[O-])[C@H](OS(=O)(=O)[O-])[C@H](O[C@@H]4O[C@H](C(=O)[O-])[C@@H](O)[C@H](O)[C@H]4O)[C@H]3NC(C)=O)[C@H](O)[C@H]2O)[C@H]1NC(C)=O.[Na+].[Na+].[Na+].[Na+].[Na+].[Na+] [sulfated tetrasaccharide CS-E, Allyl (sodium β-D-glucopyranosyluronate)-(1→3)-(4,6-di-O-sodiumsulfonato-2-deoxy-2-acetamido-β-D-galactopyranosyl)-(1→4)-(sodium β-D-glucopyranosyluronate)-(1→3)-4,6-di-O-sodium sulfonato-2-deoxy-2-acetamido-β-D-galactopyranoside] | 30-40% | 39.3±3.6 | enhanced | 30-40% | –
2 | C=CCO[C@@H]1O[C@H](CO)[C@H](O)[C@H](O[C@@H]2O[C@H](C(=O)[O-])[C@@H](O[C@@H]3O[C@H](CO)[C@H](O)[C@H](O[C@@H]4O[C@H](C(=O)[O-])[C@@H](O)[C@H](O)[C@H]4O)[C@H]3NC(C)=O)[C@H](O)[C@H]2O)[C@H]1NC(C)=O.[Na+].[Na+] [unsulfated tetrasaccharide, Allyl (sodium β-D-glucopyranosyluronate)-(1→3)-(2-deoxy-2-acetamido-β-D-galactopyranosyl)-(1→4)-(sodium β-D-glucopyranosyluronate)-(1→3)-2-deoxy-2-acetamido-β-D-galactopyranoside] | – | – | – | – | no significant effect
3 | Allyl (sodium β-D-glucopyranosyluronate)-(1→3)-4,6-di-O-sodium sulfonato-2-deoxy-2-acetamido-β-D-galactopyranoside [sulfated disaccharide] | – | – | – | – | no significant effect
